{"source": "patent US7662814B2", "about": "“4-aminothieno[2,3-d]pyrimidine-6-carbonitrile derivatives as PDE7 inhibitors” (Laboratorios Almirall, S.A., priority 2003, dated 2010)", "key": {"[1]": {"system": "PDE7", "test": "PDE7 Assay Procedure ([3H]-cAMP SPA)", "type": "biochemical", "conditions": "PDE7 inhibition, 15 nM 3',5'[3H]-cAMP, 1 hour at room temperature", "protocol": "All compounds are resuspended in DMSO at a stock concentration of 10 mM. […] All dilutions are performed in 96 well plates.\nFor each reaction, 10 microliters of the diluted compounds are poured into “low binding” assay plates. 80 microliters of a reaction mixture containing 50 mM Tris pH 7.5, 8.3 mM MgCl2, 1.7 mM EGTA, and 15 nM 3′,5′[3H]-cAMP (around 150000 dpm) are added to each well. The reaction is initiated by adding 10 microliters of a solution containing PDE7 to the reaction mixture. The plate is then incubated under stirring for 1 hour at room temperature. After incubation the reaction is stopped with 50 microlitres (0.89 mg) of PDE SPA beads (Amersham Pharmacia Biotech RPNQ0150), and the resulting mixture is allowed to settle for 20 minutes before counting in a microtitre plate counter."}}, "data": [{"smiles": "COc1ccc(-c2nc(N3CCOCC3)c3c(C)c(C#N)sc3n2)cc1OC", "note": "[Example 31, 2-(3,4-Dimethoxyphenyl)-5-methyl-4-morpholin-4-ylthieno[2,3-d]pyrimidine-6-carbonitrile]", "values": [{"measurement": "IC50", "setting": "[1]", "value": "< 1000", "unit": "nM"}, {"measurement": "melting point", "value": "194 to 196", "unit": "°C"}]}]}
